Measurements from article PMC9688530, “Development of Ic-ELISA and Colloidal Gold Lateral Flow Immunoassay for the Determination of Cypermethrin in Agricultural Samples” (Biosensors, 2022).

Key:
[1] = test system: anti-CYP mAb; assay: colloidal gold LFIA strip; format: binding, mouse; details: for CR of LFIA: CR = vLOD of CYP/vLOD of analogue × 100%; for visual limit of detection (vLOD): optimal buffer
Procedure: Colloidal gold particles were synthesized with trisodium citrate as a reducing agent according to our previous work. For the preparation of colloidal gold mAb, 6.65 μg/mL anti-CYP mAbs were added to the colloidal gold solution adjusted to pH 8.2 using 0.2 mol/L K2CO3 with shaking at room temperature for 1 h. BSA (1%) was used to block free colloidal gold particles. After 1 h, the mixture was centrifuged at 12,000 revolutions per minute (RPM) for 15 min to remove free anti-CYP mAbs. The centrifuged deposits were resuspended using one-tenth of the original volume of sodium borate solution (0.01 mol/L) containing 2% BSA and 3% sucrose and preserved at 4 °C.
As depicted in Figure 1A, the LFIA strip was assembled into four components. The center section of a PVC plate was affixed to an NC membrane. The sample pad and absorption pad were stuck on both ends of the PVC plate, and both overlapped with the NC membrane by 1 mm. A total of 2 mg/mL of hapten 5-BSA and 0.5 mg/mL of GAMA were sprayed onto the NC membrane as the test line and control line, respectively, with 5 mm intervals by an automatic dispenser. After drying at 37 °C for 12 h, the fabricated cards were cut into 4 mm wide LFIA strips.
One hundred microliters of the CYP standard solution and 4 μL of the colloidal gold mAb solution were added into a micropore and mixed. After 5 min, an LFIA strip was inserted into the mixture solution. During the mixed solution migration from the sample pad to the absorbent pad, colloidal gold mAb was captured by the T and C lines, resulting in the appearance of color bands within 10 min. When the T line disappeared or the color intensity of the T line was lower than that of the C line, the result was positive (Figure 1B,C). When the color intensity of the T line was not less than that of the C line, the result was negative (Figure 1D).
The sensitivity of the LFIA strip was evaluated by a series of CYP standard solutions (0.7, 0.6, 0.5, 0.4, 0.3, 0.2, 0.1, 0 μg/mL). For qualitative analysis, the sensitivity of the LFIA strip was appraised by the visual LOD (vLOD) and the cut-off value. The vLOD is the lowest concentration of CYP at which the lighter color of the T line is observed compared to the C line. The cut-off value is the minimum CYP concentration at which no color band appears on the T line.
The CRs of the LFIA were calculated with the following equation:CR (%) = (vLOD of CYP/vLOD of analogues) × 100%.

[2] = test system: anti-CYP mAb 2G7H9; assay: ic-ELISA based on mAb 2G7H9; format: binding, mouse; details: CR = IC50 of CYP/IC50 of analogue × 100%
Procedure: The ic-ELISA procedure was executed according to previous studies. Each well of the ELISA plate was coated with 100 μL of coating antigen diluted with carbonate buffer (0.05 mol/L, pH 9.6) at 4 °C overnight. After washing three times with phosphate-buffered saline (PBS, 0.01 mol/L, pH 7.4) containing 1‰ Tween-20, the wells were blocked with 200 μL of 5% skim milk powder in PBS at 37 °C for two hours. After the same washing procedure, 50 μL of CYP standard solution and 50 μL of mAb were pipetted into each well and incubated at 37 °C for one hour. After washing five times, 100 μL per well of 0.5‰ horseradish peroxidase-labeled goat anti-mouse IgG antibody in PBS was added and incubated at 37 °C for one hour. After the wells were washed five times, 100 μL per well of fresh substrate solution (0.1 mg/mL 3,3′,5,5′-tetramethylbenzidine and 0.024‰ H2O2 in 0.1 M citrate acid buffer) was added to react at 37 °C for 15 min. Then, 50 μL per well of 0.2 mol/L H2SO4 was used to stop the reaction, and the absorbances were read at 450 nm with a microplate reader.
Under the optimal conditions, a standard curve was constructed using a series of concentrations of standard solutions (50, 25, 12.5, 6.25, 3.13, 1.56, 0.78, 0.39 and 0.20 ng/mL) to assess the sensitivity of ic-ELISA. The IC50 and linear range (IC10–IC90) were calculated by a logistic equation established with Origin Pro 8.0.
The CRs of the ic-ELISA were calculated with the following equation:CR (%) = (IC50 of CYP/IC50 of analogues) × 100%.

SMILES	CR of LFIA [1]	visual limit of detection (vLOD) [1]	Cross-reactivity rate (%) of ic-ELISA [2]
CC1(C)C(C=C(Cl)Cl)C1C(=O)OC(C#N)c1ccc(F)c(Oc2ccccc2)c1 (stereo not drawn) [cyfluthrin]	30%	1 µg/mL	31.09%
CC1(C)C(/C=C(\Cl)C(F)(F)F)C1C(=O)OC(C#N)c1cccc(Oc2ccccc2)c1 (stereo not drawn) [cyhalothrin]	3%	10 µg/mL	16.15%
